# From US7329485B2, “Methods for detecting compounds that interfere with protein aggregation utilizing an in vitro fluorescence-based assay” (priority 2005, dated 2008)
# “Also recorded” adds a separate entry of the source.
# What was measured:
# HBV capsid (C150BO) [1] = molecular target: T1, HBV capsid (C150BO) (Hepatitis B virus genotype D subtype adw, UniProt P03147, C107A/C48A/C61A); assay: BODIPY-FL fluorescence quenching assay of C150BO capsid assembly, compared to size-exclusion chromatography; type: biochemical, HBV strain adyw; conditions: for effect on C150BO assembly (fluorescence, size-exclusion chromatography): 3 μM C150BO, 21° C.; for effect on assembly and quenching in mock assembly reactions: mock-assembled, low salt / no NaCl, time not stated; for effect on fluorescence of mock-assembled C150BO dimer (intrinsic quenching control): early times (up to 2 h)
# T1 construct: For fluorescent labeling, the mutant C150 (Zlotnick et al., 1997); made in house; host or cells: E. coli
# Procedure: Mutagenesis: For simplicity of chemical labeling, the cysteine residues (C48, C61 and C107) in the assembly domain of HBV strain adyw core protein (amino acids 1-149 (Zlotnick et al., 1996), core protein 149) were mutated to alanine, inserting a unique cysteine residue at the C terminus (C150). Mutagenesis was performed using QuikChange Multi (Stratagene). Mutagenic primers are described in Table III (IDT DNA technologies). Mutations were confirmed by dye terminator dideoxy sequencing (DNA Sequencing Core, Oklahoma Medical Research Foundation). The resulting mutant protein is referred to herein as C150.
# Protein expression, purification and dye labeling: Wild-type and mutant truncated HBV capsid protein dimers were expressed and purified from E. coli as described in Zlotnick et al., 1996 and Zlotnick et al., 2002. Protein was quantified by absorbance at 280 nm (ε=60,900 M^−1 cm^−1). DTT levels were maintained at 5 mM throughout purification and storage. Immediately before derivatization, C150 protein was removed from storage buffer by chromatography over a G25 PD10 desalting column (Amersham Biosciences) equilibrated with ice-cold 50 mM HEPES pH 7.5 without DTT. Peak fractions were reacted with BODIPY-FL maleimide (Invitrogen/Molecular Probes) on ice at a final concentration of 4 mM from a 20 mM BODIPY-FL stock in DMSO. Most complete labeling was achieved by overnight reaction, although significant labeling could be achieved by reaction for as little as 10 min. Unreacted dye was removed by separation over a G25 PD10 desalting column equilibrated in ice-cold 50 mM HEPES, pH 7.5. The degree of dye labeling was determined using absorbance at 504 nm (ε504=73,000 M^−1 cm^−1, ε280=1,300 M^−1 cm^−1). The extinction coefficient was calculated by determining the degree of labeling of BODIPY-FL-labeled C150 preps by MALDI-TOF mass spectrometry. Yield of BODIPY-FL-labeled C150 was typically on the order of 1.9 moles of dye per mole of dimer. Labeling of C150 with fluorescein maleimide was compared to BODIPY-FL; BODIPY-FL conjugates gave a much stronger assembly-dependent change in fluorescence than did fluorescein.
# Fluorescence and light scattering: Assembly was monitored by fluorescence using a SPEX Fluoromax-2 fluorometer (Horiba Jobin Yvon), using a 0.3-cm path-length cuvette (Hellma) or in black 96-well COSTAR fluorescence microtiter plates (Corning) using a MicroMax adaptor. Assembly reactions were performed at 21° C. Assembly was initiated manually by mixing core protein in 50 mM HEPES, pH 7.5, with buffered NaCl (Sigma) as appropriate. Fluorescence was excited at 504 nm and emission was measured at 509 nm (1-nm band pass for each). For static measurements, all measurements were recorded in triplicate. Qualitatively similar results were obtained using excitation at 495 nm and emission at 512 nm (commonly used for fluorescein fluorescence). Measuring fluorescence of the same reactions in either a cuvette or a 96-well fluorescence microtiter plate gave identical quenching values.
# Size-exclusion chromatography: Assembly reactions were examined by SEC on a Superose 6 10/30 column (Amersham Biosciences) mounted on a Shimadzu high-performance liquid chromatography system equipped with an auto injection module (Shimadzu). The column was equilibrated with 50 mM HEPES, pH 7.5, 50 mM NaCl. Recovered protein was assigned either to the void (6.5-7.0 ml), capsid (7.0-8.3 ml), dimer (15-16.5 ml) or intermediate elution (8.3-15 ml).
# HBV capsid (C150BO) [2] = molecular target: T1, HBV capsid (C150BO); assay: Example 2 in vitro assembly reactions with labeled capsid polypeptide C150BO, plate reader; type: biochemical; conditions: % assembly at 1 hour (FIG. 7); conditions induced 25% (±5%) assembly in the absence of drugs
# Procedure: The assays were carried out as described in Example 1, except as described herein after. Samples were read in 3 minute intervals for one hour and again at 24 hours using a Tecan filter-based plate reader with a standard fluorescein filter set.
# FIG. 7 illustrates a typical experiment comparing different compounds, including some heteroaryldihydropyrimidine (HAP) derivatives. In this experiment, assembly conditions induced 25% (±5%) assembly in the absence of drugs.
# HBV core protein = HBV core protein (Hepatitis B virus genotype D subtype adw, UniProt P03147); parameters: concentration leading to formation of aberrant particles: unit not given here; conditions: Stray et al., 2005, cited from earlier work
# Chain of HBV core protein (P03147 1-149): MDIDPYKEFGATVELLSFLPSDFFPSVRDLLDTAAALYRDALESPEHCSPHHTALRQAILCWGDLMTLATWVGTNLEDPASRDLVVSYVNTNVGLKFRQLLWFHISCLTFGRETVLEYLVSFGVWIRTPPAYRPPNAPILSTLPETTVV
# T1 sequence (P03147 1-150, looked up, stated change not applied): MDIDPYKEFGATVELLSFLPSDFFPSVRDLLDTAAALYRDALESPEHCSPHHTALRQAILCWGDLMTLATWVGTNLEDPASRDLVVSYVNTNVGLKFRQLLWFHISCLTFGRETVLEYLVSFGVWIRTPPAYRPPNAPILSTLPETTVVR
smiles,measurement,setting,value
NC(N)=O [urea],"effect on C150BO assembly (fluorescence, size-exclusion chromatography)","HBV capsid (C150BO) [1]; 0.5 M NaCl, 24 h (FIG. 6b)",inhibited assembly; also recorded: A decrease in assembly by SEC and an increase in fluorescence
same,effect on assembly and quenching in mock assembly reactions,HBV capsid (C150BO) [1],affected neither assembly nor quenching
same,effect on fluorescence of mock-assembled C150BO dimer (intrinsic quenching control),HBV capsid (C150BO) [1]; without NaCl,No reduction in fluorescence
same,effect on % assembly of HBV capsid by fluorescence,HBV capsid (C150BO) [2],only showed marginal assembly inhibition
COC(=O)C1=C(C)NC(c2ccccn2)=NC1c1ccc(F)cc1Cl (stereo not shown) [HAP-1],"effect on C150BO assembly (fluorescence, size-exclusion chromatography)","HBV capsid (C150BO) [1]; 150 mM NaCl, 24 h (FIG. 6a)","enhanced assembly, leading to enhanced quenching; also recorded: substantially increased both the rate and the extent of C150BO assembly"
same,effect on assembly and quenching in mock assembly reactions,HBV capsid (C150BO) [1],able to induce slow C150BO assembly
same,quenching and assembly in mock-assembled controls,"HBV capsid (C150BO) [1]; without NaCl, after 24 h",showed both BODIPY-FL quenching and assembly by SEC
same,effect on fluorescence of mock-assembled C150BO dimer (intrinsic quenching control),HBV capsid (C150BO) [1]; without NaCl,No reduction in fluorescence; also recorded: no effect on fluorescence
same,concentration leading to formation of aberrant particles,HBV core protein; >1 HAP-1 molecule per dimer,≥ 10
same,effect on HBV core protein assembly in vitro,HBV core protein; broad range of concentrations,enhanced the rate and extent of HBV core protein assembly
